*1 amine or outer side, *2 acyl side, *3 side chain or, on linkers, in order; H or OH if unused. Where a SMILES comes first, the peptide text is derived from it. Bridges are numbered along the chain shown (N, C = ends). Roman numbers before positions name the chains, in order. Side-chain parts run from the residue outwards. The star is where a group is joined. γGlu = O=C(O)[C@H](CCC(=O)[*:2])N[*:1]; Palmitoyl = CCCCCCCCCCCCCCCC(=O)*
Assays:
[1] = test system: various cancer cell lines; assay: In vitro anticancer effect of C16 fatty acid-binding peptides in various cancer cells; format: cell-based; details: for GI50 values compared with control (ACP52C): 48 hours after treatment; for cancer cell-specific cell death: compared with control ACP52C
Description: The anticancer effect of the CP2c-targeting peptide-fatty acid conjugate synthesized in Preparation Example 2 was analyzed in various cancer cells.

[2] = test system: Hep3B xenograft mice; format: in vivo
Description: To analyze the anticancer efficacy of the CP2c target peptide-fatty acid conjugates synthesized in Preparation Example 2 in animal models, ACP52CG and ACP52CK were injected into the Hep3B xenograft mice via tail vein 5 times at 3-day intervals.
ACP52CGK was injected into the Hep3B xenograft mice via tail vein at 3 different concentrations (1.39, 2.77, or 5.54 mg/kg) 5 times at 3-day intervals. The tumor volume was measured at every three days after drug injection. The tumor and major tissues were excised from the mice sacrificed on the 24th day after the tumor cell injection. The tumor was weighed and fixed with 4% formaldehyde together with major organs. After making tissue slides through paraffin sections, hematoxylin/eosin staining was performed. The collected blood samples were subjected to basic CBC analysis using a Coulter LH 750 hematology analyzer. The acquired data were statistically processed using an Excel program.
ACP52CGK was injected into Hep3B xenograft mice via tail vein 5 times at intervals of 5 days at 3 different concentrations (1.39, 2.77, 5.54 mg/kg), and the anticancer effect was evaluated in the same manner as described above. […] As a result of a comprehensive analysis of all the results, 2.77 mg/kg was the optimal concentration.

[3] = ELISA for antibody formation in sera of injected rabbits (immunogenicity); details: rabbit, in vivo
Description: To verify this, immunogenicity of ACP52CG and ACP52CK was directly tested in the process of deriving the final new drug candidate. Since the final candidate material might be a C-16 palmitoyl acid-conjugated ACP52C peptide, which is not different with ACP52CG and ACP52CK in terms of chemical composition, it was decided to analyze whether antibodies were formed on ACP52CG and ACP52CK. […] Therefore, it was concluded that the final candidate material (ACP52CGK) would also not show immunogenicity in the human body (FIG. 21).

[4] = test system: MDA-MB-231 (LM1) xenograft mice; format: in vivo; details: for anticancer effect: tail vein 5 times at 3-day intervals
Description: The anticancer effect of ACP52CGK was analyzed in MDA-MB-231 (LM1) xenograft mice in the same manner as in the Hep3B xenograft mouse model experiments.

[5] = test system: liver cancer induced by DEN treatment; assay: Liver cancer mouse model induced by DEN treatment; format: in vivo; details: for efficacy: mice 15 weeks after DEN treatment
Description: In addition, […] (7 to 8 mice/group), such as a control group (mock) treated with only a vehicle, a sorafenib group (an approved drug for liver cancer treatment), and an ACP52CG-GFLGE (SEQ ID NO: 16) (ACP52CK) group. The drug was injected through the tail vein a total of 12 times at a concentration of 5 mg/kg at 3-day intervals.

[6] = test system: cells primary cultured from PDX (patient derived xenograft) tumor tissue; assay: Efficacy in cells primary cultured from PDX tumor tissue; format: cell-based
[7] = test system: normal cell line; assay: Cell growth analysis in normal cell line; format: cell-based
Description: FIGS. 10a to 10g illustrate cell growth analysis results dependent upon treatment with ACP52CGK (=γC16-ACP52 cm) in normal cell lines (BEAS2B and hMSC) and cancer cell lines (Hep3B, Hs746T, Caov-3, MDA-MB-231, U343, HCT116, PANC1, PC3, A549, and THP-1).

[8] = Repeated toxicity test of ACP52CGK, 28 days, female and male mice; format: in vivo, mouse; details: 100 mg/kg
Description: A repeated toxicity test for the in vivo administration of ACP52CGK was conducted using female and male mice. […] As a full-scale experiment, after intravenous infusion of ACP52CGK for 28 days at 3-day intervals into the solvent group and high-dose group (100 mg/Kg) of 6 males and females each, the weight change, drinking water intake, and main histological analysis of organs, organ weight, hematological tests and blood biochemical tests were analyzed.

[9] = In vivo half-life by live imaging of Cy5-labeled peptide fluorescence in the mouse body; details: whole body (mouse body, live imaging), intravenous
Description: To analyze the in vivo half-life of ACP52CGK, Cy5-labeled ACP52CGK was injected into the tail vein of the mouse, and then the fluorescence intensity remaining in the mouse body was measured over time by live imaging process.

[10] = test system: caspase2; assay: Immunoblot of MDM2p90 and MDM2p60 after caspase2 inhibitor treatment; format: cell-based; details: lung cancer cells
Description: Meanwhile, when a caspase2 inhibitor (AC-VDVAD (SEQ ID NO: 11)-CHO) was treated to identify a phenomenon that occurs due to the high activity of caspase2 specifically in lung cancer cells, it was found by immunoblot that the protein amount of MDM2p90 increased, while the protein amount of MDM2p60 decreased according to the treatment with the Caspase2 inhibitor. Therefore, we concluded that the MDM2p60 form, which is overexpressed in lung cancer cells, is the result of cleavage of MDM2p90 by caspase2. […] As a result, efficacy was observed around GI50˜1 μM in the group treated with the combination of the caspase 2 inhibitor and ACP52C (FIGS. 34a to 34d, FIG. 35).

[11] = tail vein 5 times at 3-day intervals

CCCCCCCCCCCCCCCC(=O)NCC(=O)N[C@@H](Cc1ccccc1)C(=O)N[C@@H](CC(C)C)C(=O)NCC(=O)N[C@@H](CCC(=O)O)C(=O)NCCCC[C@H](NC(C)=O)C(=O)NCC(=O)NCC(=O)N[C@@H](CC(N)=O)C(=O)N[C@@H](Cc1ccc(O)cc1)C(=O)N1CCC[C@H]1C(=O)N[C@@H](CCC(N)=O)C(=O)N[C@@H](CCCNC(=N)N)C(=O)N1CCC[C@H]1C(=O)N[C@@H](CS)C(=O)N[C@@H](CCCNC(=N)N)C(=O)NCC(=O)N[C@@H](CC(=O)O)C(=O)N[C@@H](CCCCN)C(=O)NCC(=O)N1CCC[C@H]1C(=O)N[C@@H](CC(=O)O)C(=O)N[C@@H](CS)C(N)=O [ACP52CK] (I: Ac-KGGNYPQRPCRGDKGPDC-NH2 / II: Palmitoyl-GFLGE; amide I:1-II:C)
GI50 values compared with control (ACP52C) [1]: like or more efficient than that of the control
cancer cell-specific cell death [1]: induced cancer cell-specific cell death similarly to the control group
anticancer efficacy [2, 11]: showed similar efficacy to sorafenib, but their efficacy was inferior to that of ACP52C
immune response of sera from rabbits injected with ACP52CG and ACP52CK three times (ELISA) [3]: did not induce immune responses
anticancer effect [4]: showed tumor regression efficacy, but the anticancer effect was not significant
efficacy [5]: superior to another control, FQI1, but did not show any superior efficacy compared to ACP52C

CCCCCCCCCCCCCCCC(=O)N[C@@H](CCC(=O)NCCCC[C@H](NC(=O)CNC(=O)CNC(=O)[C@@H]1CCCN1C(=O)[C@H](CCCNC(=N)N)NC(=O)[C@H](CCC(N)=O)NC(=O)[C@@H]1CCCN1C(=O)[C@H](Cc1ccc(O)cc1)NC(=O)[C@H](CC(N)=O)NC(C)=O)C(=O)NCC(=O)NCC(=O)N[C@@H](CS)C(=O)N[C@@H](CCCNC(=N)N)C(=O)NCC(=O)N[C@@H](CC(=O)O)C(=O)N[C@@H](CCCCN)C(=O)NCC(=O)N1CCC[C@H]1C(=O)N[C@@H](CC(=O)O)C(=O)N[C@@H](CS)C(N)=O)C(=O)O [ACP52CGK] (Ac-NYPQRPGGK([γGlu-Palmitoyl])GGCRGDKGPDC-NH2)
sensitivity across PDX generations ([6]; cells derived from the same origin, each generation): not significantly different
resistance ([6]; primarily cultured cells from some PDX tumor tissues): showed resistance
effect on normal cells [7]: no significant effect on normal cells
GI50 values compared with control (ACP52C) [1]: like or more efficient than that of the control
cancer cell-specific cell death [1]: induced cancer cell-specific cell death similarly to the control group
tumor inhibition and metastasis inhibition effects ([2]; 1.39, 2.77, 5.54 mg/kg, tail vein 5 times at intervals of 5 days): tumor inhibition and metastasis inhibition effects superior to the sorafenib and ACP52C treatment groups
tumor metastasis inhibition effect (tumor area metastasized to the lung) ([2]; 1.39, 2.77, or 5.54 mg/kg, 5 times at 3-day intervals): superior to ACP52C in the tumor metastasis inhibition effect
tumor suppressive effect ([2]; 1.39, 2.77, or 5.54 mg/kg, tail vein 5 times at 3-day intervals): tumor suppressive effect similar to that of ACP52C
optimal concentration ([2]; comprehensive analysis of 3-day and 5-day interval results): 2.77 mg/kg
immune response of sera from rabbits injected with ACP52CG and ACP52CK three times (ELISA) [3]: did not induce immune responses
tumor suppression and metastasis inhibition effects ([4]; 1.39, 2.77, or 5.54 mg/kg, 3-day and 5-day intervals): superior to those of the sorafenib and ACP52C-treated groups
optimal concentration ([4]; mouse, in vivo): 2.77 mg/kg
Relative organ weight, Kidney ([8]; female mice): 1.34 ± 0.06%
Relative organ weight, Kidney ([8]; male mice): 1.50 ± 0.08%
Absolute organ weight, Epididymis ([8]; mouse, in vivo): 0.0482 ± 0.0127 g
Absolute organ weight, Ovary ([8]; mouse, in vivo): 0.0059 ± 0.0012 g
Absolute organ weight, Testis ([8]; mouse, in vivo): 0.1693 ± 0.0169 g
Absolute organ weight, Uterus ([8]; mouse, in vivo): 0.0638 ± 0.0227 g
Relative organ weight, Epididymis ([8]; mouse, in vivo): 0.24 ± 0.07%
Relative organ weight, Ovary ([8]; mouse, in vivo): 0.0326 ± 0.0054%
Relative organ weight, Testis ([8]; mouse, in vivo): 0.83 ± 0.08%
Relative organ weight, Uterus ([8]; mouse, in vivo): 0.35 ± 0.12%
half-life [9]: ~20.2 h

CNC(=O)c1cc(Oc2ccc(NC(=O)Nc3ccc(Cl)c(C(F)(F)F)c3)cc2)ccn1 [sorafenib, reference compound]
anticancer effect compared to the control group ([5]; mice 22 weeks after DEN treatment, 5 mg/kg tail vein 12 times at 3-day intervals): significant anticancer effect (p=0.04)

AC-VDVAD (SEQ ID NO: 11)-CHO (Ac-VDVAD-aldehyde) [caspase2 inhibitor]
protein amount of MDM2p60 [10]: decreased
protein amount of MDM2p90 [10]: increased

CCCCCCCCCCCCCCCC(=O)N[C@@H](CCC(=O)O)C(=O)NCCCC[C@H](NC(C)=O)C(=O)NCC(=O)NCC(=O)N[C@@H](CC(N)=O)C(=O)N[C@@H](Cc1ccc(O)cc1)C(=O)N1CCC[C@H]1C(=O)N[C@@H](CCC(N)=O)C(=O)N[C@@H](CCCNC(=N)N)C(=O)N1CCC[C@H]1C(=O)N[C@@H](CS)C(=O)N[C@@H](CCCNC(=N)N)C(=O)NCC(=O)N[C@@H](CC(=O)O)C(=O)N[C@@H](CCCCN)C(=O)NCC(=O)N1CCC[C@H]1C(=O)N[C@@H](CC(=O)O)C(=O)N[C@@H](CS)C(N)=O [ACP52CG] (Ac-K([Glu-Palmitoyl])GGNYPQRPCRGDKGPDC-NH2)
GI50 values compared with control (ACP52C) [1]: like or more efficient than that of the control
cancer cell-specific cell death [1]: induced cancer cell-specific cell death similarly to the control group
anticancer efficacy [2, 11]: showed similar efficacy to sorafenib, but their efficacy was inferior to that of ACP52C
immune response of sera from rabbits injected with ACP52CG and ACP52CK three times (ELISA) [3]: did not induce immune responses
anticancer effect [4]: showed tumor regression efficacy, but the anticancer effect was not significant
efficacy [5]: superior to another control, FQI1, but did not show any superior efficacy compared to ACP52C
